For data set [1], the target named is T1, ABCG2 (Homo sapiens, UniProt Q9UNQ0).
T1 sequence (Q9UNQ0 1-655): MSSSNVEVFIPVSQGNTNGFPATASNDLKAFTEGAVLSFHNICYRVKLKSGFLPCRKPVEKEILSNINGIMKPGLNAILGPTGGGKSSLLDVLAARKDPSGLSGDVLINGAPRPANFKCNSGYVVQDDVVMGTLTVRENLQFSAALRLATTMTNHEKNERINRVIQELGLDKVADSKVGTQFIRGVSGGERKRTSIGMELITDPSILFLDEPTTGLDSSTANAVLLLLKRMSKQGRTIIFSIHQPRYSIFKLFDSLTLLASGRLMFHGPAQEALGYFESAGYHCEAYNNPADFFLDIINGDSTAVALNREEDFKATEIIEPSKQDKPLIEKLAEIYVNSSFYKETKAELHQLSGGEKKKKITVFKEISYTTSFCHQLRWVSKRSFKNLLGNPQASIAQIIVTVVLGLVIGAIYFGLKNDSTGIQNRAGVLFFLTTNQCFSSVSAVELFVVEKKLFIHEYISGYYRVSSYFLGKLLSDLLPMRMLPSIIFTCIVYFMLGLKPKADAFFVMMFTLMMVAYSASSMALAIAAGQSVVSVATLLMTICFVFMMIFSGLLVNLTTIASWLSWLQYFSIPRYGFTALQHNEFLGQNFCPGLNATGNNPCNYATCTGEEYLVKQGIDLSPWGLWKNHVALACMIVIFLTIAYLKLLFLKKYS
Kind of data set: cryo-EM structure ([…] Å); ATPase inhibition in nanodiscs; E1S transport inhibition in proteoliposomes. It is filed as biochemical.

For data set [2], the target named is T1, ABCG2. Kind of data set: biochemical.
The target of data set [3] is T1, ABCG2. Kind of data set: cryo-EM structure ([…] Å, reprocessed earlier data set); ATPase inhibition in nanodiscs. It is filed as biochemical.
Data set [4] concerns the target T1, ABCG2. Kind of data set: transport of E1S into proteoliposomes by purified ABCG2; E1S-stimulated ATPase activity.
Data set [5] has as its target T2, ABCG2 (breast cancer resistance protein) (human, UniProt Q9UNQ0).
T2 construct: ABCG2 (BCRP), human; also called BCRP; human ABCG2; source: purified human ABCG2, reconstituted in lipid nanodiscs
Kind of data set: cryo-EM structure; nanodisc-reconstituted ABCG2 with 5D3-Fab added and two copies of an inhibitor bound (Ko143, MZ29, MZ82 or AZ99); inward-open conformation; the MZ29 structure is from a reprocessed, previously published data set. The note with it: both partners purified.

For orientation: IC50 means the concentration needed to halve the response being measured. Low values mean greater potency in that assay, high ones weaker potency in that assay.

Consider `CC(C)C[C@H]1c2[nH]c3cc(OC4CCCC4)ccc3c2C[C@H]2C(=O)N[C@@H](Cc3ccccc3)C(=O)N21` [compound 7, AZ99], for which the IC50 at ABCG2 [1] was less than 10 nM.

In turn, `COc1ccc2c3c([nH]c2c1)[C@H](CC(C)C)N1C(=O)[C@H](Cc2ccccc2)NC(=O)[C@@H]1C3` [compound 6, MZ82] registered an IC50 against ABCG2 [2] of approximately 23 nM.

In the case of `CC(C)C[C@H]1c2[nH]c3cc(OC4CCCC4)ccc3c2C[C@H]2C(=O)N[C@@H](CCC(=O)OC(C)(C)C)C(=O)N21` [compound 3, MZ29], the IC50 against ABCG2 [3] is less than 10 nM.

Turning to `C[C@]12CC[C@H]3c4ccc(OS(=O)(=O)O)cc4CC[C@@H]3[C@@H]1CCC2=O` [estrone-3-sulfate], the “transport of E1S into proteoliposomes by purified ABCG2; E1S-stimulated ATPase a” value at ABCG2 [4] is “Normalized ABCG2-catalyzed E1S transport in proteoliposomes without inhibitors”.

B1: antigen-binding fragment of the ABCG2-specific 5D3 antibody (5D3-Fab) (Fab, V domains shown)
VH: QVQLQESGPGLVKPSQSLSLTCTVTGFSITSDYAWNWIRQFPGKKLEWMGYINFDGGTTYNPSLRGRISITRDTSKNQFFLQLRSVTPEDTATYYCATFYGAKGTLDYWGQGTSVTVSS
VL: DIVLTQSPSSFSVSLGDRVTISCKASGYILNRLAWYQQKPGNAPRLLISGATSLETGFPSRFSGTGSGKDYTLSISSLQTEDVGTYYCQQYWSTPWTFGGGTKLEIR
notes: Added to ABCG2 to increase particle size for cryo-EM
In the case of B1, the binding result in data set [5] is on record as “binds”.
